From US12077503B2, “Substituted cyclic amides and their use as herbicides” (FMC CORPORATION, priority 2015, dated 2024)

Tests used:
Format in all cases: in vivo
[1] = test system: ivy-leaved morning glory (Ipomoea hederacea); assay: Test G Post-Emergence Protocol; details: Ipomoea, post-emergence, 312 h; for pest or weed control at 15.625 g/ha: 15.625 g ai/ha, evaluated after 13 days (100=total damage to plant; 0=no damage to plant), read-out: Morningglory, Ivy-leaved damage rating; for pest or weed control at 62.5 g/ha: 62.5 g ai/ha, read-out: Morningglory, Ivy-leaved damage rating (100=total damage to plant; 0=no damage to plant); for pest or weed control at 62.5 g/ha / pest or weed control at 250 g/ha: evaluated after 13 days; for pest or weed control at 250 g/ha: 250 g ai/ha, read-out: damage to plant, Morningglory, Ivy-leaved (100=total damage to plant; 0=no damage to plant)
Outline: (§1)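 Foliar application was made 8 days after sowing, using an aqueous spray of the active in acetone/water (50:50) with 0.5% Tween 20, at doses of 15.625, 62.5 or 250 g/ha. Injury was assessed 13 days later, where 100 meant the plant was fully damaged.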

[2] = test system: giant foxtail (Setaria faberi); assay: Test G Post-Emergence Protocol; details: Setaria faberi, post-emergence, 312 h; for pest or weed control at 15.625 g/ha: 15.625 g ai/ha, evaluated after 13 days (100=total damage to plant; 0=no damage to plant), read-out: Foxtail, Giant damage rating; for pest or weed control at 62.5 g/ha: 62.5 g ai/ha, read-out: Foxtail, Giant damage rating (100=total damage to plant; 0=no damage to plant); for pest or weed control at 62.5 g/ha / pest or weed control at 250 g/ha: evaluated after 13 days; for pest or weed control at 250 g/ha: 250 g ai/ha, read-out: damage to plant, Foxtail, Giant (100=total damage to plant; 0=no damage to plant)
Outline: as §1

[3] = test system: redroot pigweed (Amaranthus retroflexus); assay: Test G Post-Emergence Protocol; details: Amaranthus retroflexus, post-emergence, 312 h; for pest or weed control at 15.625 g/ha: 15.625 g ai/ha, evaluated after 13 days (100=total damage to plant; 0=no damage to plant), read-out: Pigweed, Redroot damage rating; for pest or weed control at 62.5 g/ha: 62.5 g ai/ha, read-out: Pigweed, Redroot damage rating (100=total damage to plant; 0=no damage to plant); for pest or weed control at 62.5 g/ha / pest or weed control at 250 g/ha: evaluated after 13 days; for pest or weed control at 250 g/ha: 250 g ai/ha, read-out: damage to plant, Pigweed, Redroot (100=total damage to plant; 0=no damage to plant)
Outline: as §1

corn (Zea mays) [4] = assay: Test G Post-Emergence Protocol; details: Zea mays, post-emergence, 312 h; for plant injury at 15.625 g/ha: 15.625 g ai/ha, evaluated after 13 days (100=total damage to plant; 0=no damage to plant), read-out: Corn damage rating; for plant injury at 62.5 g/ha: 62.5 g ai/ha, read-out: Corn damage rating (100=total damage to plant; 0=no damage to plant); for plant injury at 62.5 g/ha / plant injury at 250 g/ha: evaluated after 13 days; for plant injury at 250 g/ha: 250 g ai/ha, read-out: damage to plant, Corn (100=total damage to plant; 0=no damage to plant)
Outline: as §1

[5] = test system: velvetleaf (Abutilon theophrasti); assay: Test G Post-Emergence Protocol; details: Abutilon theophrasti, post-emergence, 312 h; for pest or weed control at 15.625 g/ha: 15.625 g ai/ha, evaluated after 13 days (100=total damage to plant; 0=no damage to plant), read-out: Velvetleaf damage rating; for pest or weed control at 62.5 g/ha: 62.5 g ai/ha, read-out: Velvetleaf damage rating (100=total damage to plant; 0=no damage to plant); for pest or weed control at 62.5 g/ha / pest or weed control at 250 g/ha: evaluated after 13 days; for pest or weed control at 250 g/ha: 250 g ai/ha, read-out: damage to plant, Velvetleaf (100=total damage to plant; 0=no damage to plant)
Outline: as §1

[6] = test system: barnyardgrass (Echinochloa crus-galli); assay: Test G Post-Emergence Protocol; details: Echinochloa crus-galli, post-emergence, 312 h; for pest or weed control at 15.625 g/ha: 15.625 g ai/ha, evaluated after 13 days (100=total damage to plant; 0=no damage to plant), read-out: Barnyardgrass damage rating; for pest or weed control at 62.5 g/ha: 62.5 g ai/ha, read-out: Barnyardgrass damage rating (100=total damage to plant; 0=no damage to plant); for pest or weed control at 62.5 g/ha / pest or weed control at 250 g/ha: evaluated after 13 days; for pest or weed control at 250 g/ha: 250 g ai/ha, read-out: damage to plant, Barnyardgrass (100=total damage to plant; 0=no damage to plant)
Outline: as §1

[7] = test system: ivy-leaved morning glory (Ipomoea hederacea); assay: Test G Pre-Emergence Protocol; details: Ipomoea, pre-emergence, 312 h, evaluated after 13 days; for pest or weed control at 15.625 g/ha: 15.625 g ai/ha, read-out: Morning-glory, Ivy-leaved damage rating (100=total damage to plant; 0=no damage to plant); for pest or weed control at 62.5 g/ha: 62.5 g ai/ha, 100=total damage to plant, 0=no damage to plant, read-out: plant damage rating, Morningglory, Ivy-leaved; for pest or weed control at 250 g/ha: 250 g ai/ha, read-out: Morningglory, Ivy-leaved damage rating (100=total damage to plant; 0=no damage to plant)
Outline: (§2)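 Glasshouse pre-emergence test: soil-sown seeds, sprayed after 1 d at 15.625, 62.5 or 250 g/ha. Conditions 24/16° C day/night, 14 h light, 65% humidity, watering twice daily. Rating 13 d post-spray (100 = total damage).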

[8] = test system: giant foxtail (Setaria faberi); assay: Test G Pre-Emergence Protocol; details: Setaria faberi, pre-emergence, 312 h, evaluated after 13 days; for pest or weed control at 15.625 g/ha: 15.625 g ai/ha; for pest or weed control at 15.625 g/ha / pest or weed control at 250 g/ha: read-out: Foxtail, Giant damage rating (100=total damage to plant; 0=no damage to plant); for pest or weed control at 62.5 g/ha: 62.5 g ai/ha, 100=total damage to plant, 0=no damage to plant, read-out: plant damage rating, Foxtail, Giant; for pest or weed control at 250 g/ha: 250 g ai/ha
Outline: as §2

[9] = test system: redroot pigweed (Amaranthus retroflexus); assay: Test G Pre-Emergence Protocol; details: Amaranthus retroflexus, pre-emergence, 312 h, evaluated after 13 days; for pest or weed control at 15.625 g/ha: 15.625 g ai/ha; for pest or weed control at 15.625 g/ha / pest or weed control at 250 g/ha: read-out: Pigweed, Redroot damage rating (100=total damage to plant; 0=no damage to plant); for pest or weed control at 62.5 g/ha: 62.5 g ai/ha, 100=total damage to plant, 0=no damage to plant, read-out: plant damage rating, Pigweed, Redroot; for pest or weed control at 250 g/ha: 250 g ai/ha
Outline: as §2

corn (Zea mays) [10] = assay: Test G Pre-Emergence Protocol; details: Zea mays, pre-emergence, 312 h, evaluated after 13 days; for plant injury at 15.625 g/ha: 15.625 g ai/ha; for plant injury at 15.625 g/ha / plant injury at 250 g/ha: read-out: Corn damage rating (100=total damage to plant; 0=no damage to plant); for plant injury at 62.5 g/ha: 62.5 g ai/ha, 100=total damage to plant, 0=no damage to plant, read-out: plant damage rating, Corn; for plant injury at 250 g/ha: 250 g ai/ha
Outline: as §2

[11] = test system: velvetleaf (Abutilon theophrasti); assay: Test G Pre-Emergence Protocol; details: Abutilon theophrasti, pre-emergence, 312 h, evaluated after 13 days; for pest or weed control at 15.625 g/ha: 15.625 g ai/ha; for pest or weed control at 15.625 g/ha / pest or weed control at 250 g/ha: read-out: Velvetleaf damage rating (100=total damage to plant; 0=no damage to plant); for pest or weed control at 62.5 g/ha: 62.5 g ai/ha, 100=total damage to plant, 0=no damage to plant, read-out: plant damage rating, Velvetleaf; for pest or weed control at 250 g/ha: 250 g ai/ha
Outline: as §2

[12] = test system: barnyardgrass (Echinochloa crus-galli); assay: Test G Pre-Emergence Protocol; details: Echinochloa crus-galli, pre-emergence, 312 h, evaluated after 13 days; for pest or weed control at 15.625 g/ha: 15.625 g ai/ha, read-out: Barnyard grass damage rating (100=total damage to plant; 0=no damage to plant); for pest or weed control at 62.5 g/ha: 62.5 g ai/ha, 100=total damage to plant, 0=no damage to plant, read-out: plant damage rating, Barnyardgrass; for pest or weed control at 250 g/ha: 250 g ai/ha, read-out: Barnyardgrass damage rating (100=total damage to plant; 0=no damage to plant)
Outline: as §2

| Compound | pest or weed control at 15.625 g/ha [1] [%] | pest or weed control at 62.5 g/ha [1] [%] | pest or weed control at 250 g/ha [1] [%] | pest or weed control at 15.625 g/ha [2] [%] | pest or weed control at 62.5 g/ha [2] [%] | pest or weed control at 250 g/ha [2] [%] | pest or weed control at 15.625 g/ha [3] [%] | pest or weed control at 62.5 g/ha [3] [%] | pest or weed control at 250 g/ha [3] [%] | plant injury at 15.625 g/ha (corn (Zea mays) [4]) [%] | plant injury at 62.5 g/ha (corn (Zea mays) [4]) [%] | plant injury at 250 g/ha (corn (Zea mays) [4]) [%] | pest or weed control at 15.625 g/ha [5] [%] | pest or weed control at 62.5 g/ha [5] [%] | pest or weed control at 250 g/ha [5] [%] | pest or weed control at 15.625 g/ha [6] [%] | pest or weed control at 62.5 g/ha [6] [%] | pest or weed control at 250 g/ha [6] [%] | pest or weed control at 15.625 g/ha [7] [%] | pest or weed control at 62.5 g/ha [7] [%] | further results |
| --- | --- | --- | --- | --- | --- | --- | --- | --- | --- | --- | --- | --- | --- | --- | --- | --- | --- | --- | --- | --- | --- |
| CN1C[C@@H](c2ccc(C(F)(F)F)nc2)[C@H](C(=O)Nc2ccccc2F)C1=O (racemic) [Compound 1419] | 0 | 20 | 10 | 10 | 60 | 70 | 10 | 20 | 30 | 10 | 10 | 20 | 10 | 10 | 0 | 30 | 50 | 60 | 0 | 0 | pest or weed control at 250 g/ha [7]: 60%; pest or weed control at 15.625 g/ha [8]: 10%; pest or weed control at 62.5 g/ha [8]: 80%; pest or weed control at 250 g/ha [8]: 90%; pest or weed control at 15.625 g/ha [9]: 0%; pest or weed control at 62.5 g/ha [9]: 0%; pest or weed control at 250 g/ha [9]: 70%; plant injury at 15.625 g/ha (corn (Zea mays) [10]): 0%; plant injury at 62.5 g/ha (corn (Zea mays) [10]): 0%; plant injury at 250 g/ha (corn (Zea mays) [10]): 50%; pest or weed control at 15.625 g/ha [11]: 0%; pest or weed control at 62.5 g/ha [11]: 0%; pest or weed control at 250 g/ha [11]: 0%; pest or weed control at 15.625 g/ha [12]: 10%; pest or weed control at 62.5 g/ha [12]: 80%; pest or weed control at 250 g/ha [12]: 90% |
| CN1C[C@@H](c2ccc(C(F)(F)F)cc2)[C@H](C(=O)Nc2nnnn2C)C1=O (racemic) [Compound 1618] | 0 | 0 | 0 | 0 | 0 | 0 | 0 | 0 | 0 | 0 | 0 | 0 | 0 | 0 | 0 | 0 | 0 | 0 | 0 | 0 | pest or weed control at 250 g/ha [7]: 20%; pest or weed control at 15.625 g/ha [8]: 0%; pest or weed control at 62.5 g/ha [8]: 0%; pest or weed control at 250 g/ha [8]: 20%; pest or weed control at 15.625 g/ha [9]: 0%; pest or weed control at 62.5 g/ha [9]: 0%; pest or weed control at 250 g/ha [9]: 20%; plant injury at 15.625 g/ha (corn (Zea mays) [10]): 0%; plant injury at 62.5 g/ha (corn (Zea mays) [10]): 0%; plant injury at 250 g/ha (corn (Zea mays) [10]): 20%; pest or weed control at 15.625 g/ha [11]: 0%; pest or weed control at 62.5 g/ha [11]: 0%; pest or weed control at 250 g/ha [11]: 10%; pest or weed control at 15.625 g/ha [12]: 0%; pest or weed control at 62.5 g/ha [12]: 0%; pest or weed control at 250 g/ha [12]: 10% |
